Experiments:
[1] = test system: excitatory synaptic transmission in the olfactory cortex (fEPSP, olfactory tract - piriform cortex layer I); assay: Basal excitatory synaptic transmission (fEPSP amplitude) in the olfactory cortex of the freely moving rat; format: in vivo, Sprague-Dawley rat; conditions: for activity on basal excitatory synaptic transmission (in words): Compound X 6 mg/kg ip, drug vs. vehicle, paired t-test; for DRUG FEPSP AMPLITUDE [% OF PRE-VEHICLE BASELINE ± S.E.M.]: ip, Compound X 6.0 mg/kg, 15 min post-drug period with largest increase
Experimental: (§1) Experiments were carried out in freely moving male Sprague-Dawley rats implanted with depth stimulating and recording electrodes in the hippocampus and olfactory cortex to (1) characterize the effect of a compound of Formula 1 ((2R,3S)-2-amino-3-hydroxy-3-(pyridin-4-yl)-1-(pyrrolidin-1-yl)propan-1-one) (“Compound X”) on basal excitatory synaptic transmission, a measure positively associated with behavioral performance and encoding of information; and (2) determine a possible interaction on synaptic transmission when Compound X is coapplied with physostigmine and galantamine—both members of the cholinesterase inhibitor family which has pro-cognitive efficacy in Alzheimer's Disease patients.
(§2) Field excitatory post-synaptic responses (fEPSPs) evoked by electrical stimulation were recorded in freely moving animals with depth electrodes permanently implanted in the hippocampus and olfactory cortex. Experiment 1 compared the effect of one dose level (6 mg/kg ip) of Compound X on hippocampal and cortical fEPSPs with vehicle control data. Experiment 2 compared the effect of Compound X (6 mg/kg ip) combined with either physostigmine (0.1 mg/kg ip) or galantamine (1 mg/kg ip) on hippocampal and cortical fEPSPs with vehicle control data.
(§3) Male Sprague Dawley rats, 3 months of age at the time of surgery, were used. The animals were housed individually and kept in a 12:12 light/dark cycle with food and water available ad libitum.
(§4) Preparation of animals with chronically implanted electrodes followed procedures essentially as described in earlier published work (U. Staubli and J. Scafidi, J. J. Neurosci. 17: 4820-4828 (1997)). For recordings from the hippocampus, the stimulating electrode was placed in the perforant path within the entorhinal cortex, and the recording electrode in the hilus of the hippocampal dentate gyrus. For recording from the olfactory cortex, the stimulating electrode was placed in the olfactory tract and the recording electrode in the layer I of the piriform cortex.
(§5) Ten days following recovery from surgery, the animals were acclimated to the recording cage as well as to the attachment of a recording lead to the head stage. Recording sessions began by adjusting current intensities (25-100 μA) and pulse width of the monophasic stimulation pulse (100-250 μsec) to produce a field excitatory postsynaptic potential (fEPSP) that was 50-60% of the maximum amplitude of the population-spike free response which typically ranged between 4 and 8 mV. Recording signals were amplified and filtered with a band pass of 1 Hz to 5 kHz and fed into a PC running specialized software (NacGather) that digitizes measures and stores the evoked responses.
Hippocampal animals (subjects with electrodes implanted into hippocampus) were randomly assigned to one of 3 groups, i.e., Compound X alone, Compound X plus physostigmine, physostigmine alone. Cortical animals (subjects with electrodes implanted into olfactory cortex) were randomly assigned to 5 groups, i.e., Compound X alone, Compound X plus physostigmine, physostigmine alone, Compound X plus galantamine, galantamine alone. […] If changes in baseline greater than +5% were observed, the experiment was terminated for that day. All other animals were injected with test compound 20 min after vehicle, and fEPSP recording was continued for at least 2 hours, but 4 hrs if the drug effect was still present at 2 hrs. In cases where animals were used repeatedly, a minimum of three washout days followed each test session. Responses were sampled once every 20 sec throughout the experiment.
Compound X was kept frozen at approximately −20° C. in a freezer as a powder. Immediately prior the powder was dissolved in double distilled water (ddw) to make a 12 mg/ml stock and then diluted by 50% for injection at 6 mg/kg at a final volume of 1 ml/kg.
Physostigmine (eserine hemisulfate) was purchased from Sigma Aldrich and dissolved in ddw to make a 1 mg/ml stock solution. […]

[2] = test system: hippocampal excitatory synaptic transmission (fEPSP, perforant path - dentate gyrus); assay: Basal excitatory synaptic transmission (fEPSP amplitude) in the hippocampus of the freely moving rat; format: in vivo, Sprague-Dawley rat; conditions: for activity on basal excitatory synaptic transmission (in words): Compound X 6 mg/kg ip, physostigmine 0.1 mg/kg ip, drug vs. vehicle, paired t-test; for DRUG FEPSP AMPLITUDE [% OF PRE-VEHICLE BASELINE ± S.E.M.]: ip, Compound X 6.0 mg/kg, physostigmine 0.1 mg/kg, 15 min post-drug period with largest increase
Experimental: as §1, §2, §3, §4
as §5, with “responses. […]” for “responses.”

SMILES: N[C@@H](C(=O)N1CCCC1)[C@@H](O)c1ccncc1 [Compound X, (2R,3S)-2-amino-3-hydroxy-3-(pyridin-4-yl)-1-(pyrrolidin-1-yl)propan-1-one]
- activity on basal excitatory synaptic transmission (in words) ([1]; galantamine 1 mg/kg ip): significant facilitatory activity
- activity on basal excitatory synaptic transmission (in words) ([1]; physostigmine 0.1 mg/kg ip): significant facilitatory activity
- DRUG FEPSP AMPLITUDE [% OF PRE-VEHICLE BASELINE ± S.E.M.] ([1]; galantamine 1.0 mg/kg): 10.67 + 1.67 % OF PRE-VEHICLE BASELINE
- DRUG FEPSP AMPLITUDE [% OF PRE-VEHICLE BASELINE ± S.E.M.] ([1]; physostigmine 0.1 mg/kg): 10.67 + 1.67 % OF PRE-VEHICLE BASELINE
- activity on basal excitatory synaptic transmission (in words) [2]: significant facilitatory activity
- DRUG FEPSP AMPLITUDE [% OF PRE-VEHICLE BASELINE ± S.E.M.] [2]: 7.86 ± 2.98 % OF PRE-VEHICLE BASELINE

SMILES: CNC(=O)Oc1ccc2c(c1)[C@]1(C)CCN(C)[C@@H]1N2C [Physostigmine, reference compound]
- DRUG FEPSP AMPLITUDE [% OF PRE-VEHICLE BASELINE ± S.E.M.] ([1]; physostigmine 0.1 mg/kg): 5.30 + 0.69 % OF PRE-VEHICLE BASELINE
- activity on basal excitatory synaptic transmission (in words) [2]: inactive
- DRUG FEPSP AMPLITUDE [% OF PRE-VEHICLE BASELINE ± S.E.M.] [2]: 2.33 + 2.91 % OF PRE-VEHICLE BASELINE

SMILES: COc1ccc2c3c1O[C@H]1C[C@@H](O)C=C[C@@]31CCN(C)C2 [Galantamine, reference compound]
- activity on basal excitatory synaptic transmission (in words) ([1]; galantamine 1 mg/kg ip): inactive
- DRUG FEPSP AMPLITUDE [% OF PRE-VEHICLE BASELINE ± S.E.M.] ([1]; galantamine 1.0 mg/kg): 3.13 + 1.73 % OF PRE-VEHICLE BASELINE

From patent US9492543B2, “Compositions for treating cognitive disorders” (priority 2009, dated 2016)
